Measurements reported in US10238624B2, “Composition for activating longevity genes, containing kojic acid derivative as active ingredient” (AMOREPACIFIC CORPORATION, priority 2015, dated 2019).

Columns and labels:
Format in all cases: cell-based
Sirt-1 mRNA [1] = experiment: Relative expression of Sirt-1 mRNA in keratinocytes (TaqMan RT-PCR); conditions: normal human keratinocytes, 10 ppm, 37° C., 24 hours; control = 1.0
Method: (§1) In order to investigate the effect of the kojic acid derivative according to the present disclosure on the activation of longevity genes, the effect of kojyl methylenedioxycinnamate on the activation of Sirt-1, Klotho, XPD and ERCC8 was compared with that of retinol using normal human keratinocytes (NHKs) and normal human fibroblasts (NHFs).
(§2) Specifically, after treating the keratinocytes (NHKs) and fibroblasts (NHFs) with kojyl methylenedioxycinnamate or retinol at 10 ppm and incubating them at 37° C. for 24 hours, the relative expression of Sirt-1, Klotho, XPD and ERCC8 mRNAs was compared by isolating the total RNAs from the cells. The NHFs were purchased from Lonza (Allendale, N.J., USA) and incubated at 37° C. for 24 hours using DMEM after transferring 2×10^5 cells onto a 60-mm dish. After discarding the medium, the cells were transferred to a fresh tissue culture flask. […]
(§3) The total RNAs were isolated using TRIzol™ (Invitrogen, Carlsbad, Calif., USA) according to the manufacturer's instructions. RNA concentration was measured spectrophotometrically and RNA integrity was measured using BioAnalyzer 2100 (Agilent Technologies, Santa Clara, Calif., USA). […] Target gene expression level was measured by quantitative real-time TaqMan RT-PCR (7500Fast, Applied Biosystems, Foster City, Calif., USA). […]

Sirt-1 mRNA [2] = experiment: Relative expression of Sirt-1 mRNA in fibroblasts (TaqMan RT-PCR); conditions: normal human fibroblasts, 10 ppm, 37° C., 24 hours; control = 1.0
Method: as §1, §2, §3

Klotho mRNA [3] = experiment: Relative expression of Klotho mRNA in keratinocytes (TaqMan RT-PCR); conditions: normal human keratinocytes, 10 ppm, 37° C., 24 hours; control = 1.0
Method: as §1, §2, §3

Klotho mRNA [4] = experiment: Relative expression of Klotho mRNA in fibroblasts (TaqMan RT-PCR); conditions: normal human fibroblasts, 10 ppm, 37° C., 24 hours; control = 1.0
Method: as §1, §2, §3

XPD mRNA [5] = experiment: Relative expression of XPD mRNA in keratinocytes (TaqMan RT-PCR); conditions: normal human keratinocytes, 10 ppm, 37° C., 24 hours; control = 1.0
Method: as §1, §2, §3

XPD mRNA [6] = experiment: Relative expression of XPD mRNA in fibroblasts (TaqMan RT-PCR); conditions: normal human fibroblasts, 10 ppm, 37° C., 24 hours; control = 1.0
Method: as §1, §2, §3

ERCC8 mRNA [7] = experiment: Relative expression of ERCC8 mRNA in keratinocytes (TaqMan RT-PCR); conditions: normal human keratinocytes, 10 ppm, 37° C., 24 hours; control = 1.0
Method: as §1, §2, §3

ERCC8 mRNA [8] = experiment: Relative expression of ERCC8 mRNA in fibroblasts (TaqMan RT-PCR); conditions: normal human fibroblasts, 10 ppm, 37° C., 24 hours; control = 1.0
Method: as §1, §2, §3

FoxO3a = FoxO3a activation by nuclear translocation rate in human MNT1 melanoma cells (DAPI/anti-FoxO3a confocal microscopy); conditions: 48 hours; for nuclear translocation rate: control 13.2%
Method: In order to investigate the effect of the kojic acid derivative according to the present disclosure on the activation of longevity genes, the effect of the kojyl methylenedioxycinnamate seletinoid G on the activation of the FoxO3a gene was investigated by measuring nuclear translocation rate using human MNT1 melanoma cells purchased from Lonza.
The degree of FoxO3a activation was evaluated based on violet fluorescence resulting from the overlapping of red and blue fluorescence. • Primary antibody: anti-FoxO3a (1:200), 4° C., overnight. • Secondary antibody: Alexa Fluor 555-conjugated goat (1:5000), room temperature, 1 hour.

SMILES | relative expression of Sirt-1 mRNA (Sirt-1 mRNA [1]) | relative expression of Sirt-1 mRNA (Sirt-1 mRNA [2]) | relative expression of Klotho mRNA (Klotho mRNA [3]) | relative expression of Klotho mRNA (Klotho mRNA [4]) | relative expression of XPD mRNA (XPD mRNA [5]) | relative expression of XPD mRNA (XPD mRNA [6]) | relative expression of ERCC8 mRNA (ERCC8 mRNA [7]) | relative expression of ERCC8 mRNA (ERCC8 mRNA [8]) | activation of the longevity gene FoxO3a (in words) (FoxO3a; 15-450 ppm) | nuclear translocation rate (FoxO3a; 15 ppm) [%] | nuclear translocation rate (FoxO3a; 150 ppm) [%] | nuclear translocation rate (FoxO3a; 450 ppm) [%]
CC1=C(/C=C/C(C)=C/C=C/C(C)=C/CO)C(C)(C)CCC1 [Retinol, retinol, reference compound] | 4.6 | 2.5 | 8.9 | 2.2 | 8.2 | 2.5 | 1.5 | 1.3 |  |  |  | 
O=C(/C=C/c1ccc2c(c1)OCO2)OCc1cc(=O)c(O)co1 [Kojyl methylenedioxycinnamate, kojyl methylenedioxycinnamate] | 5.2 | 2.4 | 9.1 | 2.5 | 8.5 | 3.5 | 1.9 | 1.4 | remarkably activates | 35.7 | 86.3 | 66.9
